“Also recorded” adds a separate entry of the source. Like-named read-outs stand apart in the source and are kept apart here.
Key:
CYP2C9 [1] = details: for AUC0-inf, adjusted geometric mean / Cmax, adjusted geometric mean: linear mixed effects model; for AUC0–144 h / Cmax: patient plasma, geometric mean (CV%); for classification as CYP2C9 inhibitor: based on S-warfarin AUC increase, ceritinib 750 mg QD
[2] = Safety and tolerability (adverse events) of ceritinib 750 mg QD in patients
Protocol: (§1) Adverse events (AEs) were coded using the Medical Dictionary for Regulatory Activities version 20.1 and were graded using Common Terminology Criteria for Adverse Events version 4.03. All patients were followed up for AEs and serious AEs (SAEs) for at least 30 days following the last dose of study treatment at the end of treatment phase. Tumor evaluation was performed at screening visit within 28 days prior to study treatment (Day 1 of DDI phase) using contrast enhanced computed tomography (or magnetic resonance imaging). Assessments of tumor response were performed every two cycles (i.e., every 6 weeks) through Cycle 9. ORR and DOR by investigator assessment was reported per Response Evaluation Criteria in Solid Tumors (RECIST) 1.1.

CYP2B6 = details: cited from earlier work
CYP2C9 [3] = details: cited from earlier work
CYP1A2 = details: cited from earlier work
CYP2C8 = details: cited from earlier work
CYP2A6 = details: HLM, of more minor clinical relevance; cited from earlier work
CYP3A [4] = experiment: Clinical DDI study: pharmacokinetics of midazolam (CYP3A probe substrate) and 1′-hydroxymidazolam with and without ceritinib; assay type: in vivo, human; details: based on midazolam AUC increase, ceritinib 750 mg QD
Source text: This was a multicenter, open-label, single sequence, crossover phase I study (ClinicalTrials.gov identifier: NCT02422589) and was divided into two phases, DDI phase and post-DDI treatment phase (Fig. 1). Patients were recruited from 10 clinical centers located across 4 countries, namely Spain (n = 3), United States (n = 3), Italy (n = 3), and Denmark (n = 1).
To assess the pharmacokinetics of probe substrates, blood samples were obtained on Days 1 and 28 at pre-dose and at 0.25, 0.5, 1, 2, 3, 4, 6, 8, 10, 24, 48, 72, 96, 120, and 144 h post-dose. […] A blood sample for CYP2C9 genotyping was collected on Day 1 of the DDI phase from all participating patients. Patients were categorized as CYP2C9 poor, intermediate, or extensive metabolizers based on the genotype testing results. This assessment was of exploratory nature and was not used as inclusion/exclusion criteria in the study.
A linear mixed-effects model was fitted to the log-transformed primary PK parameters (Cmax, AUC0-144 h, and AUC0-inf) and included a fixed effect for treatment and a random effect for subject.

CYP2C19 = details: cited from earlier work
[5] = cited from earlier work
CYP3A4/5 = details: cited from earlier work
CYP2D6 = details: cited from earlier work
CYP3A [6] = details: in vitro HLM studies; cited from earlier work
[7] = tested on: advanced ALK-positive tumors; experiment: Antitumor activity (best overall response, ORR, DCR per RECIST 1.1, investigator assessment); assay type: in vivo, human
Protocol: as §1

[8] = treatment warfarin + ceritinib 750 mg QD for 3 weeks
[9] = warfarin 10 mg single oral dose + ceritinib 750 mg QD at steady state (Day 28)
[10] = warfarin 10 mg single oral dose alone (Day 1)
[11] = HLM, of more minor clinical relevance
[12] = HLM, read-out: IC50, reversible inhibition
[13] = HLM, read-out: Ki, reversible inhibition
[14] = ceritinib concentrations up to 50 µM
[15] = All Patients N=33, ceritinib 750 mg QD
[16] = NSCLC N=19, ceritinib 750 mg QD
[17] = Other tumors N=14, ceritinib 750 mg QD

Structure (SMILES): CC(=O)C[C@H](c1ccccc1)c1c(O)c2ccccc2oc1=O [R-warfarin]
- AUC0-inf, adjusted geometric mean (CYP2C9 [1]; [8]): 38900 ng·h/mL
- Cmax, adjusted geometric mean (CYP2C9 [1]; [8]): 616 ng/mL
- AUC0-inf, adjusted geometric mean (CYP2C9 [1]; treatment warfarin alone): 36300 ng·h/mL
- Cmax, adjusted geometric mean (CYP2C9 [1]; treatment warfarin alone): 560 ng/mL
- AUC0–144 h (CYP2C9 [1]; [9]): 38,500 (34.9) h*ng/mL
- Cmax (CYP2C9 [1]; [9]): 616 (23.6) ng/mL
- AUC0–144 h (CYP2C9 [1]; [10]): 30,600 (39.0) h*ng/mL
- Cmax (CYP2C9 [1]; [10]): 560 (34.2) ng/mL
- impact of ceritinib on R-warfarin pharmacokinetics (CYP2C9 [1]; warfarin + ceritinib vs warfarin alone): did not affect the pharmacokinetics of R-warfarin to a clinically significant extent; also recorded: negligible

Structure (SMILES): CC(=O)C[C@@H](c1ccccc1)c1c(O)c2ccccc2oc1=O [S-warfarin]
- reduction of S-warfarin CL/F (CYP2C9 [1]; co-administered with ceritinib vs warfarin alone): approximately 30%
- AUC0-inf, adjusted geometric mean (CYP2C9 [1]; [8]): 32800 ng·h/mL
- Cmax, adjusted geometric mean (CYP2C9 [1]; [8]): 598 ng/mL
- AUC0-inf, adjusted geometric mean (CYP2C9 [1]; treatment warfarin alone): 21200 ng·h/mL
- Cmax, adjusted geometric mean (CYP2C9 [1]; treatment warfarin alone): 569 ng/mL
- AUC0–144 h (CYP2C9 [1]; [9]): 28,400 (36.0) h*ng/mL
- Cmax (CYP2C9 [1]; [9]): 599 (27.5) ng/mL
- AUC0–144 h (CYP2C9 [1]; [10]): 18,200 (46.6) h*ng/mL
- Cmax (CYP2C9 [1]; [10]): 569 (34.9) ng/mL

Structure (SMILES): Cc1cc(Nc2ncc(Cl)c(Nc3ccccc3S(=O)(=O)C(C)C)n2)c(OC(C)C)cc1C1CCNCC1 [ceritinib]
- deaths suspected to be treatment related ([2]; all patients N=33): None
- patients who died during the study ([2]; all patients N=33, cause study disease): 8 patients
- deaths during the on-treatment period ([2]; within 30 days of last dose of ceritinib): 4 deaths
- reversible inhibition (CYP2B6; [11]): reversibly inhibits
- inhibition at clinically relevant concentrations (CYP2B6): unlikely to inhibit
- IC50 (CYP2C9 [3]; [12]): 2000 nM
- Ki (CYP2C9 [3]; [13]): 240 nM
- time-dependent inhibition (CYP2C9 [3]; [14]): no apparent time-dependent inhibition
- mode of inhibition of metabolism of diclofenac (CYP2C9 substrate) (CYP2C9 [3]; pooled HLMs): competitively inhibited
- time-dependent inhibition (CYP1A2; [14]): no apparent time-dependent inhibition
- inhibition at clinically relevant concentrations (CYP1A2): unlikely to inhibit
- inhibition at clinically relevant concentrations (CYP2C8): unlikely to inhibit
- reversible inhibition (CYP2A6): reversibly inhibits
- classification as CYP3A inhibitor (CYP3A [4]): strong inhibitor of CYP3A
- classification as CYP3A inhibitor (CYP3A [4]; listed as Ceritinib): strong CYP3A inhibitor
- inhibition at clinically relevant concentrations (CYP2C19): unlikely to inhibit
- Cmax at steady-state ([5]; observed in earlier clinical trials): 1010 ng/mL
- Cmax ([5]; observed in earlier clinical trials, read-out: Cmax at steady-state): 1800 nM
- time to steady-state ([5]; repeat daily dosing): 2–3 weeks
- IC50 (CYP3A4/5; [12]): 200 nM
- Ki (CYP3A4/5; [13]): 160 nM
- mode of inhibition of metabolism of midazolam (CYP3A substrate) (CYP3A4/5; pooled HLMs): competitively inhibited
- inhibitor concentration associated with 50% maximal inactivation rate [Ki] (CYP3A4/5; time-dependent inhibition of CYP3A, HLM): 1.47 µM
- reversible inhibition (CYP2D6; [11]): reversibly inhibits
- time-dependent inhibition (CYP2D6; [14]): no apparent time-dependent inhibition
- inhibition at clinically relevant concentrations (CYP2D6): unlikely to inhibit
- classification as CYP2C9 inhibitor (CYP2C9 [1]): weak inhibitor of CYP2C9
- classification as CYP2C9 inhibitor (CYP2C9 [1]; listed as Ceritinib): weak CYP2C9 inhibitor
- share of hepatic oxidative metabolism via CYP3A (CYP3A [6]): > 90%
- ORR ([7]; 19 patients with NSCLC, 95% CI: 20.3, 66.5): 42.1%
- DCR ([7]; 19 patients with NSCLC, 95% CI: 38.4, 83.7): 63.2%
- Best overall response Unknown [7, 15]: 6 (18.2) n (%)
- Complete response (CR) [7, 15]: 1 (3.0) n (%)
- Non-CR/Non-PD [7, 15]: 2 (6.1) n (%)
- Partial response (PR) [7, 15]: 8 (24.2) n (%)
- Progressive disease (PD) [7, 15]: 12 (36.4) n (%)
- Best overall response Unknown [7, 16]: 4 (21.1) n (%)
- Complete response (CR) [7, 16]: 1 (5.3) n (%)
- Non-CR/Non-PD [7, 16]: 2 (10.5) n (%)
- Partial response (PR) [7, 16]: 7 (36.8) n (%)
- Progressive disease (PD) [7, 16]: 3 (15.8) n (%)
- Best overall response Unknown [7, 17]: 2 (14.3) n (%)
- Complete response (CR) [7, 17]: 0 n (%)
- Non-CR/Non-PD [7, 17]: 0 n (%)
- Partial response (PR) [7, 17]: 1 (7.1) n (%)
- Progressive disease (PD) [7, 17]: 9 (64.3) n (%)
- ORR ([7]; overall, all 33 patients, 95% CI: 13.3, 45.5): 27.3%
- DCR ([7]; overall, all 33 patients, 95% CI: 28.1, 63.6): 45.5%

From article PMC7946667 (Cancer Chemotherapy and Pharmacology, 2021)
